“And” between values parts separate entries of the source, which are not always exact repeats. Identical values can stand only once.
Key:
FRB = target: T1, FRB (Homo sapiens, UniProt P42345+P62942); experiment: SeAP reporter assay, dimerization of FRB-VP16 to FKBP3-GAL4DBD in COS-1 cells; format: cell-based
T1 construct: The minimal FRB domain comprises amino acids 2025-2114 of human mTor; expressed in transfected cells; host or cells: COS-1 cells, electroporated with pBJ5-FRBVP, pBJ5-GF3E and pG5IL2SX
Excerpt: Transcription activation by recruitment of chimeric transcriptional activation and DNA binding domains is described. COS-1 cells were electroporated with […] each of the following expression plasmids (Ho, S. N., Biggar, S. R., Spencer, D. M., Schreiber, S. L., and Crabtree, G. R. “Dimeric ligands define a role for transcriptional activation domains in reinitiation.” (1996) Nature 382, 822-826): pG5IL2SX (drives transcription of bacterial secreted alkaline phosphatase (SeAP) through GAL4 DNA binding […] elements), pBJ5-GF3E (which expresses the GAL4 DNA binding domain fused to three copies of human FKBP12), and pBJ5-FRBVP. (which expresses a FRB fusion with the Herpes Simplex Virus VP16 Activation domain) A FRB*-VP16 fusion protein which consists of modified FRB protein fused to the VP16 activation domain was also used selectively. Transfected cells were distributed equally to 96 well plates and were incubated at 37° C. for 24 to 36 hours before media was supplemented with drug in a dilution curve in which each point is represented in quadruplicate. Cells were incubated at 37° C. for an additional 24 hours followed by a 2-hour treatment at 65° C. to inactivate endogenous phosphatases. Each well was supplemented with 100μL of 1 mM methylumbelliferylphosphate dissolved in 2 M diethanolamine buffered to pH 10.0 with carbonate and incubated at 37° C. for 16 hours. Fluorescence was measured with a Fluoroscan (ICN) plate reader at 355 nm transmission and 455 nm emission using Deltasoft software.
Drug efficacy was determined in a three-plasmid transcriptional switch reporter assay. ˜106 COS1 cells were coelectroporated with 2 μg of the DNA binding construct pBJ5-Gal4-FKBP(3), 2 μg pBJ5-VP16 (or the relevant mutant FRB) and 2 μg of the Gal4-SeAP reporter. Electroporation details are available upon request. […] SeAP activity was measured by fluorescence with a Spectamax M2 fluorometer (Molecular Devices, Sunnyvale, Calif.) with transmission set at 355 nm and emmission set at 460 nm. Data was analysed with Softmax Pro (Molecular Devices), Microsoft Excel and Prism 3 (GraphPad Software).

GSK-3βFRB* [1] = target: T2, GSK-3βFRB* (UniProt P26883+P42345, K2095P/T2098L/W2101F); experiment: Inducible stabilization of GSK-3βFRB* in knock-in MEFs (Western blot); format: cell-based, mouse; parameters: The minimal FRB domain comprises amino acids 2025-2114 of human mTor; endogenous in cells; host or cells: MEFs from GSK-3β^FRB* knock-in mice (fusion expressed from the targeted endogenous locus)
Experimental: MEFs cell lines were prepared from E14.5-E16.5 embryos of indicated genotypes by eviscerating the embryos in HBSS, treating the remaining tissue with 0.2% collagenase and trypsin, and plating the cells in DMEM containing 10% FCS, antibiotics, and 0.1 mM β-mercaptoethanol. Once established, the MEFs were cultured using standard techniques and treated with various small molecules as indicated.
Western Blot analysis was carried out using cell lysates prepared in RIPA buffer (10 mM Tris pH 7.2, 150 mM NaCl, 0.1% SDS, 1% Triton X-100, 1% deoxycholate, 5 mM EDTA, protease inhibitor cocktail (Invitrogen Life Technologies)) and then separated using standard SDS/PAGE before being transferred to PVDF (Millipore) using standard Western blotting procedures. The anti-GSK-3β antibody, used at 1:2500, the anti-HSP-90 antibody, 1:2500, and the anti-FKBP12 antibody, 1:2500, were purchased from BD Transduction Labs. The anti-β-catenin antibody, 1:2000, and anti-HSP-70 antibody, 1:1000 were purchased from Santa Cruz Biotechnology. […] In all cases, Western blots were incubated overnight with the appropriate primary antibodies in TBST (10 mM Tris 8.0, 150 mM NaCl, 0.1% Tween-20) containing 10% dry milk, and then washed 3 times with TBST. The blots were subsequently incubated for 30 minutes with HRP-conjugated secondary antibodies from Jackson Immunoresearch, washed 3 more times with TBST, and then developed using standard ECL reagents (Amersham Biosciences) and Kodak XAR film.

GSK-3βFRB* [2] = target: T2, GSK-3βFRB*; experiment: Stabilization of GSK-3βFRB* in embryos of injected pregnant mice; format: in vivo, mouse; parameters: The minimal FRB domain comprises amino acids 2025-2114 of human mTor; endogenous in cells; host or cells: MEFs from GSK-3β^FRB* knock-in mice (fusion expressed from the targeted endogenous locus); details: 200 mg/kg/day IP to mother, embryos harvested at E11.5
Experimental: GSK-3β^+/FRB* mice were intercrossed and the date of vaginal plug observation was set as E0.5. At E9.5, the stage of embryonic development was confirmed by ultrasonography (Chang, C. P. et al. “Sonographic Staging of the Developmental Status of Mouse Embryos in Utero.” (2003) Published in Genesis 36, 7-11) and mice were weighed. Drug administration commenced at E10.0. C20-MaRap was dissolved as a stock in N,N-dimethylacetamide (DMA) and was diluted into a delivery vehicle containing 10% Polyethylene glycol 400, 17% Polyoxyethylene sorbitan monooleate and 10% DMA to a final concentration of […]. 100 μL was immediately injected intraperitoneally (IP) to pregnant females with injections repeated twice more at 12 hour intervals to E11.5 when mice were sacrificed, and embryos and organs were dissected and frozen in […]. Tissues anterior to the embryonic forelimbs of individual embryos were used for preparation of protein extracts with the remainder used to determine the concentration of drug and for genotyping.

T1 sequence (P42345 2025-2114): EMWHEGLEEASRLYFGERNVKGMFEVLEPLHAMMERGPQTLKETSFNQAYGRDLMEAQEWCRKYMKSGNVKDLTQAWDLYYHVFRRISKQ
T1 sequence (P62942 whole entry, the tested form may be a part): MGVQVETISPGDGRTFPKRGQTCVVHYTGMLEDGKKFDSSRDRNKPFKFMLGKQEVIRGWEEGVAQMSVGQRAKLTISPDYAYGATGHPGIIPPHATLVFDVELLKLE
T2 sequence (P42345 2025-2114 K2095P/T2098L/W2101F): as the sequence (P42345 2025-2114) above, with K71P, T74L, W77F counted along it
T2 sequence (P26883 2-108): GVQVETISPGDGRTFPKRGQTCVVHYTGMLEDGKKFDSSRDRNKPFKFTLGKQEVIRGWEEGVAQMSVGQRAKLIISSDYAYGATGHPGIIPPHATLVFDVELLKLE

In the case of “C20-(R or S)-methallylrapamycin [C20-MaRap]”, the Kd (FRB; wild-type FRB) is reported as > 200 nM, the EC50 (FRB; wild-type FRB(KTW)-VP16, ±95% confidence intervals) is reported as 226 nM and > 200 nM and the “GSK-3βFRB* levels” value (GSK-3βFRB* [1]; GSK-3βFRB*/FRB* MEFs, 36 hour treatment, 100 nM) is reported as “restored GSK-3βFRB* levels”. For the same substance, the “effect on wild-type GSK-3β, β-catenin, or HSP-90 expression” value (GSK-3βFRB* [1]; MEFs) was “neither drug had an effect”, the “stabilization in fibroblasts lacking detectable FKBP12 expression” value (GSK-3βFRB* [1]; doubly homozygous GSK-3βFRB* and FKBP12IM, 100 nM 36 hours) was “complete loss of C20-MaRap-induced stabilization” and the “time of half maximal stabilization” value (GSK-3βFRB* [1]; heterozygous MEFs, 100 nM) was 8 to 12 h. The “time to complete stabilization” value (GSK-3βFRB* [1]; heterozygous MEFs, 100 nM) was “approximately 24 hours” and the “GSK-3βFRB* protein levels in embryos” value (GSK-3βFRB* [2]) was “partially restored”.
